Columns and labels:
[1] = tested on: C. elegans glp4; sek1 infected with C. albicans SC5314; test: Death rate of C. elegans glp4; sek1 infected with C. albicans SC5314, 96 well plates; type: in vivo, Caenorhabditis elegans; details: for effect on death rate of infected C. elegans (in words): 0.4 mM to 3 mM (the tested four concentrations); for % change in the death rate compared to the control: 25° C.
Protocol: Caenorhabditis elegans glp4; sek1 was used as the model for […]. Breger et al. (Breger, J.; Fuchs, B. B.; Aperis, G.; Moy, T. I., Ausubel, F. M., Mylonakis, E.; “Antifungal chemical compounds identified using a C. elegans pathogenicity assay.” PLoS Pathogens 3: 168-178; 2007) reported that the glp-4 mutation rendered the strain incapable of producing progeny at 25° C., and the sek-1 mutation enhanced the sensitivity of the strain to various pathogens, thereby decreasing the time for screening assays. It was observed that no progenies was produced by the Caenorhabditis elegans glp4; sek1 strain after 3 d incubation at 25° C.
The synchronization of C. elegans was achieved by collecting the eggs and arresting the larvae at L1 stage. The commonly used bleach treatment was able to release the eggs from the adult worms. However, it was observed that the released eggs were not always able to hatch after treated with sodium hypochlorite (0.2, 0.3, 0.4, 0.5, 0.7 or 1%) for 3-5 min. A modified egg laying method was developed to synchronize worms to L1 stage. In brief, stock cultures of C. elegans glp4; sek1, maintained on Nematode Growth Media plates (NGM plates), were subcultured onto NGM plates with OP 50 and incubated at 15° C. for 6-9 days. Then a chunk (1 cm^2) of agar with gravid adults was subcultured again onto NGM plates with OP50 and incubated at 15° C. After incubation of 3-7 days, the worms were gently washed off with 3 ml of M 9 buffer on the rotating platform (100 rpm). The plate was tilted on its lid to allow the liquid and worms drain to one side of the plate. The liquid and worms were aspirated off. The plate was washed again with M9 buffer three more times to remove OP50 as much as possible. After washing, the plate was incubated at 25° C. overnight to let the eggs hatch overnight. Since there was no OP50, the larvae were arrested at the L1 stage. The live C. elegans glp4; sek1 was quite curvy; whereas the dead C. elegans glp4; sek1 tended to be straight, and in most cases the dead worms with the hyphae of C. albicans pieced through the body. The curvy shape and movement after shaking were used as the criteria for live.
The In vitro screening assay, based on the method of Tampakakis et al (Tampakakis, E.; Okoli, I.; Mylonakis, E.; “A C. elegans-based, whole animal, in vivo screen for the identification of antifungal compounds.” Nature Protocols 3:1925-1931; 2008), is described as follows:
L1 worms, which were prepared by the modified egg-laying method, were collected by centrifugation at 675 g for 30 s at room temperature, and the supernatant was removed. Worms were resuspended in M 9 buffer and inoculated on NGM agar plates with OP50, ˜1000 worms per plate. After 2-3 days incubation at 25° C., the worms were washed off with M 9 buffer for the […] assay.
The control were worms fed on OP50.

C. elegans glp4; sek1 = test: Toxicity: death rate of C. elegans glp4; sek1 fed on E. coli OP50; details: for Death rate (%): 2 mM, worms fed on E. coli OP50, 25° C.; for toxicity to C. elegans fed on E. coli OP50 (in words): in vivo
Protocol: The toxicity of the selected compounds/products were tested using the C. elegans glp4; sek1 fed on E. coli OP50 (Table 5).
Stock cultures of C. albicans SC 5314 was subcultured into 3 ml of YPD broth and incubated at 30° C. Then the overnight culture in broth was spread onto YPD agar, and incubated at 30° C. The 24 h old lawn of SC5314 was used to feed worms for 2 h at 25° C. The control were worms fed on OP50.
The worms were washed off the YPD plates and washed twice with M9 buffer. The worms were resuspended in screening media, M9 buffer with 0.3% Tween 80. The worm suspension (50 μl) was dispensed into the wells of 96-well plates, 20-30 worms/well. Aliquots (50 μl) of compounds in screening media were added to wells, 5 wells each compound. The 96 well plates were incubated at 25° C. for up to 5 days. Live and dead worms were counted during incubation, and the death rates of worms were calculated.

C. albicans SC5314 [2] = test: Germ tube formation (GTF %) in vitro screening, GlcNAc-triggered differentiation assay; type: cell-based, Candida albicans
Protocol: Based on the results in FIG. 3, single cell suspensions of SC5314 was prepared as follows. Stock culture of C. albicans SC5314 was streaked onto YPD agar (YPDA) and incubated at 30° C. overnight. Single colonies were subcultured in YPD broth (YPDB) and incubated 30° C., 200 rpm overnight. Overnight culture in YPDB was subcultured in YPD broth again and incubated 30° C., 200 rpm 48 h. Cells were collected by centrifugation (4000 g 10 min) at 4° C., washed three times with sterile water, and then resuspended in sterile water a final concentration of 10^9 colony-forming unit/ml (cfu/ml). The suspension were stored at 4° C. at least 1 d, then subcultured into YPDB to a final concentration of 10^6 cfu/ml. After 48 h incubation, cell suspension was examined under the microscope for single cell percentage. When the single cell percentage exceeded 80%, cells were collected and washed three times with water, then resuspended in water to a final concentration of 10^9 cfu/ml, and stored at 4° C. for no more than a month.
Two approaches were taken to determine the percentage of cells with germ tubes formed (GTF %). One way was to count the total cells at the start of incubation, and count the ungerminated cells after incubation, then calculate the GTF % as (1—ungerminated cells/total cells at 0 h)*100. Another way was to store the samples at 15° C. for 20 h after incubation, then count the germinated cells and total cells after disaggregation, then calculated the GTF % as (germinated cells/total cells after storage)*100. […] Therefore, for practical purposes, the GTF % was determined by the first method, that is, GTF %=(1—ungerminated cells/total cells at 0 h)*100, for the in vitro screening discussed herein.
A screening medium, containing 11 mM imidazole buffer, 3 mM MgSO4, and 2.6 mM N-acetyl-D-glucosamine (GlcNAc) has been used to study the effect of farnesol analogs on the germ tube formation of C. albicans. Here, the germ tube formation of C. albicans in modified screening media was assessed with various concentrations of imidazole buffer (10 mM, 30 mM and 50 mM) and MgSO4 (0.5 mM, 1.5 mM and 3 mM). […] It took 2 h to 3 h for the GTF % to reach above 80%. For practical purposes, the screening medium, containing 11 mM imidazole buffer, 0.5 mM MgSO4, and 2.6 mM N-acetyl-D-glucosamine (GlcNAc) was adopted for in vitro screening the quorum sensing inhibitory effect of farnesol compounds.
The in vitro screening assay was based on the N-acetylglucosamine (GlcNAc)-triggered differentiation assay (Hornby et al., “Quorum sensing in the dimorphic fungus Candida albicans is mediated by farnesol;” Applied and Environmental Microbiology 67:2982-2992; 2001), which included 0.56 ml of 0.1 M imidazole buffer (pH 6.5), 0.15 ml of 0.1 M MgSO4, 0.13 ml of 0.1 M GlcNAc, and 4.16 ml of sterilized water. Bioassays of quorum sensing candidates were conducted by the addition of the chemical, as a solution in 100% methanol, to the bioassay media; the final concentration of methanol was no greater than 1%.

C. albicans SC5314 [3] = test: Effect of quorum sensing molecules on lag phase/growth of C. albicans in YPD broth; type: cell-based, Candida albicans; details: 100 μM, 37° C., 6 h
[4] = 2.0 mM, 4 days, two replicates (* three)
[5] = 2.0 mM, 5 days, two replicates (* three)

SMILES	effect on death rate of infected C. elegans (in words) [1]	% change in the death rate compared to the control ([1]; 0.4 mM, 4 days, two replicates) [%]	% change in the death rate compared to the control ([1]; 0.4 mM, 5 days, two replicates) [%]	% change in the death rate compared to the control ([1]; 1.0 mM, 4 days, two replicates) [%]	% change in the death rate compared to the control ([1]; 1.0 mM, 5 days, two replicates) [%]	% change in the death rate compared to the control [1, 4] [%]	% change in the death rate compared to the control [1, 5] [%]	% change in the death rate compared to the control ([1]; 3.0 mM, 4 days, two replicates) [%]	% change in the death rate compared to the control ([1]; 3.0 mM, 5 days, two replicates) [%]	Death rate (%) (C. elegans glp4; sek1)	GTF % (mean ± SEM, n = 2) (C. albicans SC5314 [2]; 100 μM, * one replicate)	GTF % (mean ± SEM, n = 2) (C. albicans SC5314 [2]; 200 μM) [%]	toxicity to C. elegans fed on E. coli OP50 (in words) (C. elegans glp4; sek1)	effect on the growth of C. albicans SC5314 (in words) (C. albicans SC5314 [3])
CC(C)=CCC/C(C)=C/CC/C(C)=C/COC(=O)CCC(=O)OCCO [#4 synthesized analog]	did not have significant effect on the death of the worms	8 ± 8	7 ± 1	−3 ± 3	−1 ± 4	4 ± 8	8 ± 11	7 ± 4	10 ± 5	2	59.2 ± 4.8%	31.1 ± 8.2		
CC(C)=CCC/C(C)=C/CC/C(C)=C/COCCCCO [#5 synthesized analog]	did not have significant effect on the death of the worms	−3 ± 6	−6 ± 3	2 ± 3	9 ± 1	−8 ± 1	2 ± 2	−4 ± 4	4 ± 1	4	73.8 ± 4.8%	53.6 ± 3.0		
CC(=O)OCC=C(C)CCC=C(C)CCC=C(C)C [farnesyl acetate, reference compound]	increased the death rate of the worm significantly	10 ± 6	4 ± 3	27 ± 7	15 ± 7	21 ± 5	9 ± 2	24 ± 9	7 ± 10	12	51.9 ± 2.1%	36.8 ± 0.8	toxic to the worm	
C=CC(C)(O)CC/C=C(\C)CCC=C(C)C (stereo not drawn) [trans-nerolidol, reference compound]	increased the death rate of the worm significantly	11 ± 4	4 ± 5	3 ± 7	−8 ± 5	25 ± 10	10 ± 2	7 ± 0	9 ± 9	23	92.4* %	51.6 ± 1.8	toxic to the worm	
OCCc1ccc(O)cc1 [tyrosol]														little effect on the growth

From US11383003B2, “Water soluble farnesol analogs and their use” (Kimberly-Clark Worldwide, Inc., priority 2012, dated 2022)
